IC50 data for 27 compounds are collected here from US9795607B2, “Substituted pyrrolopyrimidine compounds, compositions thereof, and methods of treatment therewith” (Signal Pharmaceutical, LLC, priority 2013, dated 2017).

Some results are limits rather than exact numbers.

The subject of one assay is Triple negative breast cancer cell line CAL51. The experiment in a line: Cell Titer Glo proliferation assay, CAL51. The format is cell-based. The conditions noted are these: Homo sapiens, CAL-51; CAL51 cell proliferation (Table 1); read-out: Act. Level. As to the method: Cell Titer Glo Proliferation Assay.
Triple negative breast cancer cell line CAL51 was purchased from DSMZ. […] Allcell lines were maintained in growth media consisting of 90% high glucose Dulbecco's Modified Eagle Medium or RPMI1640 (Invitrogen), 10% fetal bovine serum (Hyclone), and 2 mM L-glutamine (Invitrogen). […] After overnight culture, compound stock (30 mM) was diluted serially in DMSO, further diluted in growth media, and was added to each well as a 10× concentrated solution in a volume of 11 μL, mixed, and allowed to incubate with cells. The compound vehicle (DMSO) was maintained at a final concentration of 0.2% in all wells. After 72 h, 100 μL of Cell Titer Glo solution (Promega) was added to each well of the 96-well plate. The plate was placed on a shaker for 2 minutes. After 10 minutes incubation, the luminescence signal was detected with Envision microplate reader (Perkin Elmer).
Take `CNC(=O)c1ccc(Nc2nc(OC3CCC(C)(O)CC3)c3c(-c4ccc5nc(C)oc5c4)c[nH]c3n2)c(Cl)c1` (stereo not drawn) [Example 429, 3-chloro-4-(4-((1s,4s)-4-hydroxy-4-methylcyclohexyloxy)-5-(2-methylbenzo[d]oxazol-6-yl)-7H-pyrrolo[2,3-d]pyrimidin-2-ylamino)-N-methylbenzamide]: the IC50 is less than 100 nM.

As to `COc1cc(C(=O)N(C)C)ccc1Nc1nc(OC)c2c(-c3ccnc(F)c3)c[nH]c2n1` [Example 412, 4-(5-(2-fluoropyridin-4-yl)-4-methoxy-7H-pyrrolo[2,3-d]pyrimidin-2-ylamino)-3-methoxy-N,N-dimethylbenzamide], the IC50 lay within 400 to 1000 nM.

Turning to `CNC(=O)c1ccc(Nc2nc(OC)c3c(-c4ccc5nc(C)oc5c4)c[nH]c3n2)c(Cl)c1` [Example 427, 3-chloro-4-(4-methoxy-5-(2-methylbenzo[d]oxazol-6-yl)-7H-pyrrolo[2,3-d]pyrimidin-2-ylamino)-N-methylbenzamide], the IC50 is less than 100 nM.

For the compound `COc1cc(C2CCOCC2)ncc1Nc1nc(OC)c2c(-c3ccnc(F)c3)c[nH]c2n1` [Example 416, 5-(2-fluoropyridin-4-yl)-4-methoxy-N-(4-methoxy-6-(tetrahydro-2H-pyran-4-yl)pyridin-3-yl)-7H-pyrrolo[2,3-d]pyrimidin-2-amine], the IC50 was in the range of 1000 to 10000 nM.

For `COc1nc(Nc2ccc(C(=O)N(C)C3COC3)cc2C)nc2[nH]cc(-c3ccncc3)c12` [Example 406, 4-(4-methoxy-5-(pyridin-4-yl)-7H-pyrrolo[2,3-d]pyrimidin-2-ylamino)-N,3-dimethyl-N-(oxetan-3-yl)benzamide], the IC50 was 100 to 400 nM.

As for `CNC(=O)c1ccc(-c2c[nH]c3nc(Nc4ccc(C(=O)NC)cc4Cl)nc(OC4CCOCC4)c23)cc1` [Example 421, 3-chloro-N-methyl-4-(5-(4-(methylcarbamoyl)phenyl)-4-(tetrahydro-2H-pyran-4-yloxy)-7H-pyrrolo[2,3-d]pyrimidin-2-ylamino)benzamide], the IC50 is less than 100 nM.

Staying with this assay, now noted: Homo sapiens, CAL-51; CAL51 cell proliferation, Cell Titer Glo; read-out: Act. Level.
For the compound `COCCOc1nc(Nc2ccc(C(=O)NC3CN(C)C3)cc2OC)nc2[nH]cc(-c3ccc4nc(C)oc4c3)c12` [Example 386, 3-methoxy-4-(4-(2-methoxyethoxy)-5-(2-methylbenzo[d]oxazol-6-yl)-7H-pyrrolo[2,3-d]pyrimidin-2-ylamino)-N-(1-methylazetidin-3-yl)benzamide], the IC50 fell in the range of 1000 to 10000 nM.

As for `CNC(=O)c1ccc(Nc2nc(OC3CCCC3)c3c(-c4c(C)noc4C)c[nH]c3n2)c(OC)c1` [Example 321, 4-(4-(cyclopentyloxy)-5-(3,5-dimethylisoxazol-4-yl)-7H-pyrrolo[2,3-d]pyrimidin-2-ylamino)-3-methoxy-N-methylbenzamide], the IC50 lay within 1000 to 10000 nM.

In the case of `COc1cc(C(=O)NC2COC2)ccc1Nc1nc(OC2(C)CCC2)c2c(-c3ccc4nc(C)oc4c3)c[nH]c2n1` [Example 379, 3-methoxy-4-(5-(2-methylbenzo[d]oxazol-6-yl)-4-(1-methylcyclobutoxy)-7H-pyrrolo[2,3-d]pyrimidin-2-ylamino)-N-(oxetan-3-yl)benzamide], the IC50 was less than 100 nM.

`CNC(=O)c1ccc(-c2c[nH]c3nc(Nc4ccc(C(=O)NC5CN(C)C5)cc4OC)nc(OC4CCC(C)(O)CC4)c23)cc1` (stereo not drawn) [Example 349, 4-(4-((1s,4s)-4-hydroxy-4-methylcyclohexyloxy)-5-(4-(methylcarbamoyl)phenyl)-7H-pyrrolo[2,3-d]pyrimidin-2-ylamino)-3-methoxy-N-(1-methylazetidin-3-yl)benzamide]: the IC50 fell in the range of 100 to 400 nM.

On to `CNC(=O)c1ccc(Nc2nc(O[C@H]3CCOC3)c3c(-c4cnn(C)c4)c[nH]c3n2)c(OC)c1` [Example 328, (S)-3-methoxy-N-methyl-4-(5-(1-methyl-1H-pyrazol-4-yl)-4-(tetrahydrofuran-3-yloxy)-7H-pyrrolo[2,3-d]pyrimidin-2-ylamino)benzamide], for which the IC50 was less than 100 nM.

For the compound `COc1nc(Nc2ccc(C(=O)N(C)C)cc2C)nc2[nH]cc(-c3cnn(C)c3)c12` [Example 398, 4-(4-methoxy-5-(1-methyl-1H-pyrazol-4-yl)-7H-pyrrolo[2,3-d]pyrimidin-2-ylamino)-N,N,3-trimethylbenzamide], the IC50 was in the range of 400 to 1000 nM.

Regarding `COc1cc(C(=O)N(C)C)ccc1Nc1nc(OC)c2c(-c3ccncc3)c[nH]c2n1` [Example 392, 3-methoxy-4-(4-methoxy-5-(pyridin-4-yl)-7H-pyrrolo[2,3-d]pyrimidin-2-ylamino)-N,N-dimethylbenzamide], the IC50 is less than 100 nM.

On to `CNC(=O)c1ccc(-c2c[nH]c3nc(Nc4ccc(C(=O)NC5COC5)cc4OC)nc(O[C@H]4CCOC4)c23)cc1` [Example 376, (S)-3-methoxy-4-(5-(4-(methylcarbamoyl)phenyl)-4-(tetrahydrofuran-3-yloxy)-7H-pyrrolo[2,3-d]pyrimidin-2-ylamino)-N-(oxetan-3-yl)benzamide], for which the IC50 was less than 100 nM.

On to `CNC(=O)c1ccc(Nc2nc(OC3CCOCC3)c3c(-c4cncc(OC)c4)c[nH]c3n2)c(OC)c1` [Example 325, 3-methoxy-4-(5-(5-methoxypyridin-3-yl)-4-(tetrahydro-2H-pyran-4-yloxy)-7H-pyrrolo[2,3-d]pyrimidin-2-ylamino)-N-methylbenzamide], for which the IC50 lay within 100 to 400 nM.

As for `CNC(=O)c1ccc(-c2c[nH]c3nc(Nc4ccc(C(=O)NC5COC5)cc4OC)nc(OC4CCC4)c23)cn1` [Example 352, 5-(4-cyclobutoxy-2-(2-methoxy-4-(oxetan-3-ylcarbamoyl)phenylamino)-7H-pyrrolo[2,3-d]pyrimidin-5-yl)-N-methylpicolinamide], the IC50 lay in the range of 1000 to 10000 nM.

Turning to `CNC(=O)c1ccc(-c2c[nH]c3nc(Nc4ccc(C(=O)NC5COC5)cc4OC)nc(OC4CC(F)(F)C4)c23)cc1` [Example 345, 4-(4-(3,3-difluorocyclobutoxy)-5-(4-(methylcarbamoyl)phenyl)-7H-pyrrolo[2,3-d]pyrimidin-2-ylamino)-3-methoxy-N-(oxetan-3-yl)benzamide], the IC50 was less than 100 nM.

Turning to `CNC(=O)c1ccc(-c2c[nH]c3nc(Nc4ccc(C(=O)NC5COC5)cc4OC)nc(OC4CCC4)c23)cc1F` [Example 353, 4-(4-cyclobutoxy-2-(2-methoxy-4-(oxetan-3-ylcartbamoyl)phenylamino)-7H-pyrrolo[2,3-d]pyrimidin-5-yl)-2-fluoro-N-methylbenzamide], the IC50 was 1000 to 10000 nM.

`COc1cc(C(=O)NCCO)ccc1Nc1nc(OC2CCOCC2)c2c(-c3cnn(C)c3)c[nH]c2n1` [Example 327, N-(2-hydroxyethyl)-3-methoxy-4-(5-(1-methyl-1H-pyrazol-4-yl)-4-(tetrahydro-2H-pyran-4-yloxy)-7H-pyrrolo[2,3-d]pyrimidin-2-ylamino)benzamide]: the IC50 fell in the range of 100 to 400 nM.

In the case of `COc1cc(C(=O)NC2CN(C)C2)ccc1Nc1nc(OC2CCC(C)(O)CC2)c2c(-c3ccc4nc(C)oc4c3)c[nH]c2n1` (stereo not drawn) [Example 358, 4-(4-((1s,4s)-4-hydroxy-4-methylcyclohexyloxy)-5-(2-methylbenzo[d]oxazol-6-yl)-7H-pyrrolo[2,3-d]pyrimidin-2-ylamino)-3-methoxy-N-(1-methylazetidin-3-yl)benzamide], the IC50 was in the range of 100 to 400 nM.

`CNC(=O)c1ccc(Nc2nc(OC3CCCC3)c3c(-c4ccc(C(=O)OC)cc4)c[nH]c3n2)c(OC)c1` [Example 318, methyl 4-(4-(cyclopentyloxy)-2-(2-methoxy-4-(methylcarbamoyl)phenylamino)-7H-pyrrolo[2,3-d]pyrimidin-5-yl)benzoate]: the IC50 was 1000 to 10000 nM.

Regarding `COc1cc(C(=O)NC2COC2)ccc1Nc1nc(OC(C)(C)C)c2c(-c3ccc4nc(C)oc4c3)c[nH]c2n1` [Example 370, 4-(4-tert-butoxy-5-(2-methylbenzo[d]oxazol-6-yl)-7H-pyrrolo[2,3-d]pyrimidin-2-ylamino)-3-methoxy-N-(oxetan-3-yl)benzamide], the IC50 was less than 100 nM.

On to `CNC(=O)c1ccc(-c2c[nH]c3nc(Nc4ccc(C(=O)NC5CN(C)C5)cc4OC)nc(OC(C)(C)C)c23)cc1` [Example 355, 4-(4-tert-butoxy-5-(4-(methylcarbamoyl)phenyl)-7H-pyrrolo[2,3-d]pyrimidin-2-ylamino)-3-methoxy-N-(1-methylazetidin-3-yl)benzamide], for which the IC50 was less than 100 nM.

Consider `COc1nc(Nc2ccc(C(=O)NC3COC3)cc2C)nc2[nH]cc(-c3ccncc3)c12` [Example 396, 4-(4-methoxy-5-(pyridin-4-yl)-7H-pyrrolo[2,3-d]pyrimidin-2-ylamino)-3-methyl-N-(oxetan-3 yl)benzamide], for which the IC50 lay within 100 to 400 nM.

As to `COc1cc(C(=O)N2C[C@@H]2CO)ccc1Nc1nc(OC2CCCC2)c2c(-c3ccc4nc(C)oc4c3)c[nH]c2n1` [Example 346, (R)-(4-(4-(cyclopentyloxy)-5-(2-methylbenzo[d]oxazol-6-yl)-7H-pyrrolo[2,3-d]pyrimidin-2-ylamino)-3-methoxyphenyl)(2-(hydroxymethyl)aziridin-1-yl)methanone], the IC50 fell in the range of 100 to 400 nM.

For the compound `CNC(=O)c1ccc(Nc2nc(OC3CCC(C)(O)CC3)c3c(-c4ccc5nc(C)oc5c4)c[nH]c3n2)c(OC)c1` (stereo not drawn) [Example 205, 4-(4-((1r,4r)-4-hydroxy-4-methylcyclohexyloxy)-5-(2-methylbenzo[d]oxazol-6-yl)-7H-pyrrolo[2,3-d]pyrimidin-2-ylamino)-3-methoxy-N-methylbenzamide], the IC50 was less than 100 nM.

Turning to `CNC(=O)c1ccc(Nc2nc(OC3CCCC3)c3c(-c4cc(F)c5nc(C)oc5c4)c[nH]c3n2)c(OC)c1` [Example 330, 4-(4-(cyclopentyloxy)-5-(4-fluoro-2-methylbenzo[d]oxazol-6-yl)-7H-pyrrolo[2,3-d]pyrimidin-2-ylamino)-3-methoxy-N-methylbenzamide], the IC50 lay in the range of 100 to 400 nM.
